“And” between values parts separate entries of the source, which are not always exact repeats. Identical values can stand only once.
Experiments:
S. aureus ATCC29213 = assay: MIC by microdilution, S. aureus ATCC29213; assay type: cell-based, Staphylococcus aureus; conditions: S. aureus ATCC29213 (MecA negative, wild-type), Mueller-Hinton broth, in duplicate
Protocol: The antibacterial profile of each derivative was evaluated by the standard microdilution method for susceptibility testing on 16 different strains, following the guidelines of CLSI. The selected panel included: • S. aureus ATCC25923 (MecA negative, wild-type) • S. aureus ATCC29213 (MecA negative, wild-type) • S. aureus ATCC700699 (MecA positive, glycopeptide resistant) • S. aureus ST20131365 (MecA positive, glycopeptide resistant) • S. epidermidis ATCC14990 (MecA negative, wild-type) • S. epidermidis ATCC35984 (MecA positive) • S. epidermidis ST20140436 (MecA positive, glycopeptide resistant) • S. epidermidis ST20150446 (MecA positive, glycopeptide resistant) • E. faecalis JH2-2 (wild-type) • E. faecalis UCN41 (VanA positive, glycopeptide resistant) • E. faecalis V583 (VanB positive, glycopeptide resistant) • E. faecium ATCC19434T (wild-type) • E. faecium BM4147 (VanA positive, glycopeptide resistant) • E. faecium AUS0004 (VanB positive, glycopeptide resistant) • E. coli ATCC25922 (wild-type) • Clostridium difficile ATCC9689 (wild-type)
Both series issued from the SAR study were evaluated for their antibacterial activity on a panel of characterized strains obtained from the French National Reference Centers for Staphylococci (Lyon, Pr. Fréderique Laurent) and for Enterococci (Caen, Pr. Vincent Cattoir), respectively. As shown in the following tables, both series contain very active compounds on multi-resistant Gram-positive bacteria (Minimal Inhibitory Concentrations lower than comparator antibiotic ampicillin). Furthermore, a very important antibacterial effect has been shown too on a strain of Clostridium difficile, a Gram-positive, spore-forming, bacillus responsible for post-antibiotic diarrhoae.
The antibacterial activity of test compounds was evaluated on a selected panel of Gram-positive (4 Staphylococcus aureus, 4 Staphylococcus epidermidis, 3 Enterococcus faecalis, 3 Enterococcus faecium, 1 Clostridium difficile) and Gram-negative strains (1 Escherichia coli, 1 Klebsiella pneumoniae, 1 Pseudomonas aeruginosa, 1 Acinetacter baumannii) with known features of antibiotic resistance (from wild-type susceptibility to multi-drug resistance). The Minimal Inhibitory Concentration (MIC) of test compounds was determined in duplicate by the microdilution method in 96-well microplates with a final volume of 100 μL per well and Mueller-Hinton broth as the growth medium, as recommended by the CLSI (Clinical and Laboratory Standards Institute, document Mo7-A10, USA).

S. aureus ST20131365 = assay: MIC by microdilution, S. aureus ST20131365; assay type: cell-based, Staphylococcus aureus; conditions: S. aureus ST20131365 (MecA positive, glycopeptide resistant), in duplicate
Summary of the method: (§1)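 Broth microdilution per CLSI document M07-A10, Mueller-Hinton medium, each MIC run in duplicate. Strains include E. coli ATCC25922 (wild-type), S. epidermidis ATCC35984 (MecA positive) and S. aureus ATCC700699 (MecA positive, glycopeptide resistant), within a mixed panel of susceptible and resistant Gram-positive/Gram-negative bacteria.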

S. epidermidis ATCC35984 = assay: MIC by microdilution, S. epidermidis ATCC35984; assay type: cell-based, Staphylococcus epidermidis; conditions: S. epidermidis ATCC35984 (MecA positive), in duplicate
Summary of the method: as §1

[1] = system: S. epidermidis ST20140436; assay: MIC by microdilution, S. epidermidis ST20140436; assay type: cell-based, Staphylococcus epidermidis; conditions: S. epidermidis ST20140436 (MecA positive, glycopeptide resistant), in duplicate
Summary of the method: (§2)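 Broth microdilution per CLSI (M07-A10) in Mueller-Hinton broth, run in duplicate; MIC recorded as minimal inhibitory concentration. Panel spans wild-type to multidrug-resistant strains, e.g. S. aureus ATCC700699 (MecA+, glycopeptide resistant), S. epidermidis ATCC35984 (MecA+), E. coli ATCC25922 (wild-type).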

[2] = system: S. epidermidis ST20150446; assay: MIC by microdilution, S. epidermidis ST20150446; assay type: cell-based, Staphylococcus epidermidis; conditions: S. epidermidis ST20150446 (MecA positive, glycopeptide resistant), in duplicate
Summary of the method: as §2

E. faecalis V583 = assay: MIC by microdilution, E. faecalis V583; assay type: cell-based, Enterococcus faecalis; conditions: E. faecalis V583 (VanB positive, glycopeptide resistant), in duplicate
Summary of the method: as §1

E. faecium ATCC19434T = assay: MIC by microdilution, E. faecium ATCC19434T; assay type: cell-based, Enterococcus faecium; set-up: unit not given here; conditions: E. faecium ATCC19434T (wild-type), in duplicate
Summary of the method: as §2

E. faecium BM4147 = assay: MIC by microdilution, E. faecium BM4147; assay type: cell-based, Enterococcus faecium; set-up: unit not given here; conditions: E. faecium BM4147 (VanA positive, glycopeptide resistant), in duplicate
Summary of the method: as §2

E. faecium AUS0004 = assay: MIC by microdilution, E. faecium AUS0004; assay type: cell-based, Enterococcus faecium; conditions: E. faecium AUS0004 (VanB positive, glycopeptide resistant), in duplicate
Summary of the method: as §2

E. coli ATCC25922 = assay: MIC by microdilution, E. coli ATCC25922; assay type: cell-based, Escherichia coli; conditions: E. coli ATCC25922 (wild-type), in duplicate
Summary of the method: as §1

[3] = system: Clostridium difficile ATCC700057; assay: MIC by microdilution, Clostridium difficile; assay type: cell-based; conditions: strain ATCC70057 [sic] (Tables 1-2) / ATCC700057 (Tables 3-10), in duplicate
S. aureus ATCC25923 = assay: MIC by microdilution, S. aureus ATCC25923; assay type: cell-based, Staphylococcus aureus; conditions: S. aureus ATCC25923 (MecA negative, wild-type), Mueller-Hinton broth, in duplicate
Summary of the method: as §2

S. aureus ATCC700699 = assay: MIC by microdilution, S. aureus ATCC700699; assay type: cell-based, Staphylococcus aureus; set-up: unit not given here; conditions: S. aureus ATCC700699 (MecA positive, glycopeptide resistant), in duplicate
Summary of the method: as §1

S. epidermidis ATCC14990 = assay: MIC by microdilution, S. epidermidis ATCC14990; assay type: cell-based, Staphylococcus epidermidis; conditions: S. epidermidis ATCC14990 (MecA negative, wild-type), in duplicate
Summary of the method: as §1

E. faecalis JH2-2 = assay: MIC by microdilution, E. faecalis JH2-2; assay type: cell-based, Enterococcus faecalis; set-up: unit not given here; conditions: E. faecalis JH2-2 (wild-type), in duplicate
Summary of the method: as §2

E. faecalis UCN41 = assay: MIC by microdilution, E. faecalis UCN41; assay type: cell-based, Enterococcus faecalis; set-up: unit not given here; conditions: E. faecalis UCN41 (VanA positive, glycopeptide resistant), in duplicate
Summary of the method: as §2

[4] = system: panel of Gram-positive and Gram-negative strains; assay: Antibacterial profile on the selected panel of strains; assay type: cell-based; conditions: summary of Tables 1-12
Summary of the method: as §1

Row | SMILES | Minimal Inhibitory Concentration (MIC) (S. aureus ATCC29213) | Minimal Inhibitory Concentration (MIC) (S. aureus ST20131365) | Minimal Inhibitory Concentration (MIC) (S. epidermidis ATCC35984) | Minimal Inhibitory Concentration (MIC) [1] | Minimal Inhibitory Concentration (MIC) [2] | Minimal Inhibitory Concentration (MIC) (E. faecalis V583) | Minimal Inhibitory Concentration (MIC) (E. faecium ATCC19434T) | Minimal Inhibitory Concentration (MIC) (E. faecium BM4147) | Minimal Inhibitory Concentration (MIC) (E. faecium AUS0004) | Minimal Inhibitory Concentration (MIC) (E. coli ATCC25922) | Minimal Inhibitory Concentration (MIC) [3] | Minimal Inhibitory Concentration (MIC) (S. aureus ATCC25923) | Minimal Inhibitory Concentration (MIC) (S. aureus ATCC700699) | Minimal Inhibitory Concentration (MIC) (S. epidermidis ATCC14990) | Minimal Inhibitory Concentration (MIC) (E. faecalis JH2-2) | Minimal Inhibitory Concentration (MIC) (E. faecalis UCN41) | antimicrobial / antibacterial activity (in words) [4]
1 | CC1(C)S[C@@H]2[C@H](NC(=O)[C@H](N)c3ccccc3)C(=O)N2[C@H]1C(=O)O [Ampi, ampicillin, reference compound] | 0.5 | 4 | >8 | 4 and 8 | 8 and 4 | 0.5 | 0.5 | 4 and 8 | >8 | 2 | 0.5 and 0.5-1 and 0.25 | – | – | – | – | – | –
2 | CC[P+](CC)(CC)[Au-][c]1nn[nH]c1-c1ccc(C(=O)O)cc1 [TMB14] | 0.125 | 0.125 and 0.25 | ≤0.06 | – | – | 1 | 0.5 | 0.5 | 0.5 | >8 | 0.125 | 0.125 | 0.125 | ≤0.06 | 0.5 | 0.5 and 1 | have antimicrobial activity
3 | CC[P+](CC)(CC)[Au-][c]1nn[nH]c1-c1ccc(C(=O)NC(C(=O)O)c2ccccc2)cc1 (stereo not drawn) [TMB23] | 0.125 | 0.125 | – | – | ≤0.06 | 0.125 and 0.25 | 0.25 | 0.25 and 0.5 | 0.25 | >8 | ≤0.06 | ≤0.06 | 0.125 | ≤0.06 | 0.25 | 0.125 | have antimicrobial activity
4 | CC[P+](CC)(CC)[Au-][c]1nn[nH]c1C1CCC(C(=O)O)CC1 (stereo not drawn) [TMB25] | 0.25 | – | ≤0.06 | – | 0.125 and 0.25 | 0.125 | 0.125 | 0.125 | 0.125 | >8 | ≤0.06 | – | 0.25 | ≤0.06 | 0.125 | 0.125 | have antimicrobial activity
5 | CC[P+](CC)(CC)[Au-][c]1nn[nH]c1COC(=O)N[C@H](CC(=O)O)C(=O)O [TMB29] | 0.125 | 0.125 | ≤0.06 | ≤0.06 | – | 0.25 | 0.25 | 0.25 and 0.5 | 0.5 | >8 | ≤0.06 | 0.125 | 0.125 | ≤0.06 | 0.25 | 0.25 | have antimicrobial activity
6 | CC[P+](CC)(CC)[Au-][c]1nn[nH]c1-c1cn[nH]c1 [TMB31] | ≤0.06 | – | ≤0.06 | ≤0.06 | ≤0.06 | 0.25 | 0.25 | 0.25 | 0.25 | >8 | ≤0.06 | ≤0.06 | 0.125 | ≤0.06 | 0.25 | 0.25 | have antimicrobial activity
